Results on 1 compound are retold here after PMC12014616, “HPLC-UV method development and validation for anticancer drug sorafenib and the co-prescribed drug dexamethasone: application to pharmacokinetic evaluation of sorafenib nanoformulations” (Frontiers in Pharmacology, 2025).

SMILES strings stand for the structures.

A short description of the series: Stability of sorafenib-spiked plasma samples at different storage conditions. It is filed as physicochemical. Here is the method:
The plasma was separated from the blood by centrifugation at 8,000 rpm for 10 min at […]. The plasma (200 µL) was spiked with sorafenib, dexamethasone, and IS, the protein was precipitated with acetonitrile, and the extraction of the analytes was carried out with ACN, MeOH, and DCM. The following plan was applied to obtain the sample (Figure 2), and a sample (20 µL) was applied for analysis.
Linearity was confirmed through least squares regression, while sensitivity was measured on the basis of the S/N ratio of HPLC software. The S/N ratios are 3 and 10 for LOD and LOQ, respectively. Similar robustness was tested through planned changes in parameters while stability studies were performed at different storage conditions (‒20°C, 4°C, and 25°C) for a month using Equation 3. % Stability=St/So X 100, (3) where St indicates stability at time t, and S0 indicates stability at time 0.

For the compound `CNC(=O)c1cc(Oc2ccc(NC(=O)Nc3ccc(Cl)c(C(F)(F)F)c3)cc2)ccn1` [sorafenib, Sorafenib], the “% Recovery (Mean ± SD)” value (4°C, 6 hours, 250 ng/mL) is on record as 98.13 ± 0.19; 0.19%; the “% Recovery (Mean ± SD)” value (4°C, 6 hours, 500 ng/mL) is on record as 98.29 ± 0.65; 0.66%; the “% Recovery (Mean ± SD)” value (4°C, 6 hours, 1,000 ng/mL) is reported as 98.91 ± 0.91; 0.92%; the “% Recovery (Mean ± SD)” value (4°C, 24 hours, 250 ng/mL) is reported as 98.11 ± 0.38; 0.77%; the “% Recovery (Mean ± SD)” value (4°C, 24 hours, 500 ng/mL) was 98.30 ± 0.67; 0.68%; the “% Recovery (Mean ± SD)” value (4°C, 24 hours, 1,000 ng/mL) is given as 98.05 ± 0.68; 0.69%. The “% Recovery (Mean ± SD)” value runs as follows: (4°C, 72 hours, 250 ng/mL) 97.36 ± 0.85; 0.87%; (4°C, 72 hours, 500 ng/mL) 96.99 ± 0.32; 0.33%; (4°C, 72 hours, 1,000 ng/mL) 96.93 ± 0.48; 0.50%; (25°C, 0 hours, 250 ng/mL) 98.15 ± 0.44; 0.45%; (25°C, 0 hours, 500 ng/mL) 98.25 ± 0.55; 0.56%; (25°C, 0 hours, 1,000 ng/mL) 98.55 ± 0.19; 0.19%. The “% Recovery (Mean ± SD)” value is given as 97.45 ± 0.34; 0.35% (25°C, 6 hours, 250 ng/mL); 97.39 ± 0.12; 0.12% (25°C, 6 hours, 500 ng/mL); 98.05 ± 0.15; 0.15% (25°C, 6 hours, 1,000 ng/mL); 95.51 ± 0.53; 0.55% (25°C, 24 hours, 250 ng/mL); 96.05 ± 0.41; 0.43% (25°C, 24 hours, 500 ng/mL); 97.55 ± 0.26; 0.27% (25°C, 24 hours, 1,000 ng/mL). Further, the “% Recovery (Mean ± SD)” value runs as follows: (25°C, 72 hours, 250 ng/mL) 85.90 ± 0.50; 0.58%; (25°C, 72 hours, 500 ng/mL) 84.95 ± 0.34; 0.40%; (25°C, 72 hours, 1,000 ng/mL) 88.25 ± 0.74; 0.84%; (freeze and thaw 3x, 250 ng/mL) 96.41 ± 0.17; 0.18%; (freeze and thaw 3x, 500 ng/mL) 97.05 ± 0.22; 0.23%; (freeze and thaw 3x, 1,000 ng/mL) 98.00 ± 0.87; 0.89%.
